# How the values were obtained:
# LX-1 = LX-1 subcutaneous tumor in athymic nude mice; assay type: in vivo; details: 100 mg/kg, i.v. q3d×4, athymic nude mice; mean baseline tumor volume 1000 mm^3
# Description: Athymic nude mice were implanted subcutaneous with a 4-5 mm^3 tissue fragment of LX-1 collected from donor mice. The tumor trocar site was observed twice weekly and measured once palpable. The tumor volume for each mouse was determined by measuring two dimensions with calipers and calculated using the formula: tumor volume=(length×width^2)/2. […] The mice were sorted to evenly distribute tumor size, grouped into 4 to 6 mice/group, and ear punched for permanent identification. Drugs were administered intravenously q3d×4 (Day 1, 4, 7 and 10) via the tail vein at an approximate rate of 0.5 mL per minute.
# [1] = system: P388/O (murine lymphoid neoplasm) cell line; assay: In vitro bioassay, cell growth by Alamar Blue; assay type: cell-based; details: Mus musculus, 72 h; P388/O cells, three days, 37° C., in duplicate; SD ± 10%
# Description: A series of in vitro assays were conducted to determine the IC50 for unmodified Ara-C and compound 10 using the P388/O (murine lymphoid neoplasm, Southern Research Institute) cell line. The P388/0 cells were grown in RPMI 1640 medium (Whittaker Bioproducts, Walkersville, Md.) +10% FBS (Hyclone Inc., Logan UT). Bioassays were performed in their respective media containing antibiotics and fungizone.
# Ara-C was dissolved in DMSO and diluted to the appropriate concentration in culture media. The PEG-Ara-C compounds were dissolved in water and diluted to the appropriate concentrations in culture media.
# The assays were performed in duplicate in 96-well microtiter cell culture plates. Two fold serial dilution of the compounds were done in the microtiter plates. Cells were detached by incubating with 0.1% Trypsin/Versene at 37°. Trypsin was inactivated by adding the appropriate media for each cell line containing 10% FBS. To each well of the microtiter plates, 10,000 cells were added. After three days, cell growth was measured by addition of a metabolic indicator dye, Alamar Blue, according to the manufacturer's protocol. The IC50 value for the test compounds and reference compound are provided above in the Table.
smiles,measurement,setting,value
"Nc1ccn([C@@H]2O[C@H](CO)[C@@H](O)[C@@H]2O)c(=O)n1 [Ara-C, cytosine arabinoside]",LX-1 % T/C,LX-1,74.0%
same,IC50,[1],10 nM

# From US20020161052A1, “Terminally-branched polymeric linkers and polymeric conjugates containing the same” (priority 2001, published 2002)
